From ChEMBL document CHEMBL1152838, “QSAR study of antioxidant activity of wine polyphenols” (Eur J Med Chem, 2009)

What was measured:
[1] = system: Liver microsomes; assay: Antioxidant activity in Wistar rat liver microsomes assessed as inhibition of lipid peroxidation by TBA assay; format: functional, Microsome
[2] = ABTS radical scavenging activity assessed as Trolox equivalent antioxidant capacity; format: physicochemical

Row | SMILES | IC50 [1] [µM] | Activity [2] [mmol/L]
1 | O=c1c(O)c(-c2ccc(O)c(O)c2)oc2cc(O)cc(O)c12 [QUERCETIN] | 8.5 | 1.14
2 | O=C(O)/C=C/c1ccc(O)c(O)c1 [CAFFEIC ACID] |  | 1.01
3 | O=c1cc(-c2ccc(O)cc2)oc2cc(O)cc(O)c12 [APIGENIN] | 100 | 
4 | O=C1C[C@@H](c2ccc(O)cc2)Oc2cc(O)cc(O)c21 [NARINGENIN] | 100 | 
5 | O=c1c(O)c(-c2cc(O)c(O)c(O)c2)oc2cc(O)cc(O)c12 [MYRICETIN] | 10.5 | 1.02
6 | O=C(O)c1cc(O)c(O)c(O)c1 [GALLIC ACID] |  | 1.98
7 | Oc1ccc(/C=C/c2cc(O)cc(O)c2)cc1 [RESVERATROL] |  | 0.4
8 | O=c1c(O)c(-c2ccc(O)cc2)oc2cc(O)cc(O)c12 [KAEMPFEROL] | 19 | 0.79
9 | COc1cc(/C=C/C(=O)O)ccc1O [FERULATE] |  | 0.23

Second part, the molecule after the results:

Row | IC50 [1] [µM] | Activity [2] [mmol/L] | SMILES
10 | 51 |  | Oc1cc(O)c2c(c1)OC(c1ccc(O)c(O)c1)C(O)C2 (stereo not drawn) [CATECHIN]
11 |  | 0.57 | Oc1cc(O)c2c(c1)O[C@H](c1ccc(O)c(O)c1)[C@@H](O)C2 [CATECHIN]
12 | 23 | 0.83 | O=c1c(O)c(-c2ccc(O)cc2O)oc2cc(O)cc(O)c12 [MORIN]
13 | 25 | 0.99 | Oc1cc(O)c2c(c1)O[C@H](c1ccc(O)c(O)c1)[C@H](O)C2 [(-)-EPICATECHIN]
